Earlier results on one compound are cited in EP2908850B1, “A COMPOSITION COMPRISING GLUCORAPHANIN, MYROSINASE AND A BUFFERED SOLUTION FOR USE IN THE TREATMENT OF NEURODEGENERATIVE DISEASES” (Bramanti, Placido, priority 2012, dated 2014).

SMILES strings stand for the structures.

The conditions of the data set: state of the art statement.

On to `C[S+]([O-])CCCCN=C=S` (racemic) [RS,SS-SFN, sulforaphane], for which the solubility in water result is on record as “slightly soluble in water” and the stability entry is “unstable”.
